According to US12421235B2, “Bridged tricyclic carbamoylpyridone compounds and uses thereof” (Gilead Sciences, Inc., priority 2020, dated 2025):

What was measured:
[1] = High throughput microsomal stability assay (human liver microsomes); assay type: in vitro ADME; conditions: for HLM stability: human liver microsomes, 1 uM compound, NADPH + UDPGA cofactors, 37 C
Protocol: Example 49: High Throughput Microsomal Stability Assay
Metabolic stability of compounds was assessed using Human, or Rat Liver Microsomal assays (Corning). In this assay, 10 nL compounds at concentration of 1 mM in 100% DMSO were dispensed into 384-well polypropylene plates using the Echo 550 acoustic liquid dispenser (Labcyte®). Each plate contained 384 wells with a single test compound in each well.
A solution of human (Corning® Gentest™ Human Mixed Pooled Microsomes), or rat (Corning® Gentest™ Rat [Sprague-Dawley] Pooled Liver Microsomes) liver microsomes at 2 mg/ml in 100 mM K2HPO4/KH2PO4 pH 7.4 with Alamethicin from Trichoderma viride (Sigma-Aldrich) 0.0225 mg/ml were incubated on ice for 15 minutes. 5 uL of this solution was added to individual wells following 15 minute incubation at room temperature; and supplemented with 5 uL NADPH Regenerating Solution of cofactors (Corning® Gentest™ UGT Reaction Mix) containing 100 mM K2HPO4/KH2PO4 pH 7.4, 2.6 mM NADP+, 6.6 mM glucose-6-phosphate, 6.6 mM MgCl2, 0.8 U/mL glucose-6-phosphate dehydrogenase, 0.1 mM Sodium Citrate, 6.8 mM uridine diphosphate-glucuronic acid. Final concentration of analyte compounds at the beginning of the reaction was 1 uM. The reactions were incubated at 37° C. and time points of 0, 5, 15, 30, 40, 50, 60, and 70 minutes were collected for further analysis. Background data were collected using reactions without analyte compounds.
Upon collection of the reaction time points, samples were quenched with 30 uL of a solution of 72% acetonitrile, 8% methanol, 0.1% formic acid, 19.9% water, and internal standard (IS). Reaction plates were span in a centrifuge at speed of 4,000 rcf for 30 minutes and 4° C., following a dilution of the 10 uL quenched reaction into 40 uL de-ionized water, yielding assay plates.
Assay plates were analyzed using solid-state extraction coupled with quadrupole time-of-flight mass spectrometer, using Agilent QToF 6530 RapidFire 360 system, with C4 type A solid state cartridges. Analysis was performed in either positive or negative ionization modes. Mobile phases contained 0.1% formic acid in water for loading analytes onto solid state extraction cartridges, and 0.1% formic acid in acetonitrile for elution into mass spectrometer in positive ionization mode, or 0.1% acetic acid in water for loading and 0.1% acetic acid in acetonitrile for extraction in negative ionization mode. Peak-area ratios of integrated counts for individual compounds to IS were plotted as semi-logarithmic chart of log vs time. Initial, linear portion of decay was fitted to a linear regression equation to derive half time of a compound decay.
Pharmacological parameters for an analyte compound metabolism were calculated using the following equations: […]
Where. Calculation of In Vitro Intrinsic Clearance
Concentration refers to the protein concentration (mg/mL) in the reaction.
Calculation of In Vivo Intrinsic Clearance
This scales the in vitro intrinsic clearance up to the value that would be predicted for the entire mass of liver tissue (but with no restriction by blood flow). The value depends upon the size of the liver (species-dependent) and the yield of microsomal protein as appropriate (assumed to be species-independent).
Calculation of Predicted Clearance
Hepatic clearance will depend upon the inter-relationship of intrinsic clearance and hepatic blood flow and can be predicted from in vitro data using a variety of approaches.
Calculation of Hepatic Extraction
This is simply the predicted clearance expressed as a proportion of hepatic blood flow. E=CL/QH*100%
Intrinsic clearance of the instant compounds, as well as for reference compounds A-F, were calculated following the procedure above.

[2] = Cytotoxicity assay in MT-4 cells; assay type: cell-based; conditions: human, uninfected MT-4 cells, Cell Titer Glo
Protocol: (§1) Compounds were tested in a high-throughput 384-well assay format for their ability to inhibit the replication of HIV-1 (IIIB) in MT-4 cells. Compounds were serially diluted (1:3) in DMSO on 384-well polypropylene plates and further diluted 200-fold into complete RPMI media (10% FBS, 1% P/S) using the Biotek Micro Flow and Labcyte ECHO acoustic dispenser. Each plate contained up to 8 test compounds, with negative (No Drug Control) and 5 μM AZT positive controls. MT-4 cells were pre-infected with 10 μL of either RPMI (mock-infected) or a fresh 1:250 dilution of HIV-1 IIIB concentrated virus stock. Infected and uninfected MT-4 cells were further diluted in complete RPMI media and added to each plate using a Micro Flow dispenser. After 5 days incubation in a humidified and temperature controlled incubator (37° C.), Cell Titer Glo (Promega) was added to the assay plates and chemiluminescence read using an Envision plate-reader. EC50 values were defined as the compound concentration that causes a 50% decrease in luminescence signal, and were calculated using a sigmoidal dose-response model to generate curve fits. Cytotoxicity Assay in MT-4 Cells Assays were performed as above except uninfected MT-4 cells were added to each well containing test compound. In addition, 10 μM puromycin was added to the last column of each assay plate to assess a base level of cytotoxicity.

[3] = tested on: pLai RLuc reporter virus in MT-4 cells; assay: HIV MT-4 serum shift antiviral reporter assay; assay type: cell-based; conditions: Human immunodeficiency virus 1, MT4, 72 h, read-out: RLUC CCM
Protocol: Example 48: HIV MT-4 Serum Shift Antiviral Reporter Assay
To quantify the amount of protein binding to human serum, compounds were serially diluted (1:3) in DMSO and acoustically transferred onto 384-well assay plates via a Labcyte ECHO robot. Each plate contained up to 8 test compounds, including negative and positive controls, (DMSO, 5 μM AZT respectively). Assay plates were prepared in duplicate, and tested in either CCM (cell culture media) or HS/CCM (human serum/cell culture media). MT-4 cells were first pre-infected with pLai RLuc reporter virus for 2 h at 37° C., then further diluted in either CCM (RPMI media, 10% FBS, 1% P/S) or HS/CCM (RPMI media, 10% FBS, 50% HS, 1% P/S), and subsequently added to each plate using a Biotek Micro Flow dispenser. After a 72-h incubation in a humidified and temperature controlled incubator (37° C.), Renilla Glo (Promega) was added to all assay plates and chemiluminescence read using an Envision plate-reader. EC50 values were defined as the compound concentration that causes a 50% decrease in luminescence signal, and were calculated using a sigmoidal dose-response model to generate curve fits. To determine the amount of protein binding, EC50 fold shifts (or EC50 shifts) were calculated by dividing EC50 (HS/CCM)/EC50 (CCM). […]

[4] = tested on: HIV-1 (IIIB) in MT-4 cells; assay: HIV MT-4 antiviral assay; assay type: cell-based; conditions: Human immunodeficiency virus 1, MT4, 120 h, 5 days, Cell Titer Glo
Protocol: Example 47: HIV MT-4 Antiviral and Cytotoxicity Assay
Antiviral Assay in MT-4 Cells
as §1, with “fits.” for “fits. Cytotoxicity Assay in MT-4 Cells Assays were performed as above except uninfected MT-4 cells were added to each well containing test compound. In addition, 10 μM puromycin was added to the last column of each assay plate to assess a base level of cytotoxicity.”

| Structure (SMILES) | HLM stability [1] | MS Cl improvement ([1]; relative to compound F) | CC50 at 5 days [2] | EC50 [3] | EC50 [4] |
| --- | --- | --- | --- | --- | --- |
| C[C@H]1CC[C@](C)(O)[C@H]2CN1C(=O)c1c(O)c(=O)c(C(=O)NCc3ccc(F)cc3F)cn12 (single isomer, unassigned) [Example 12] | 2.5 mL/min/kg | 3.3 times relative to compound F | 41300 nM | 0.61 nM | 1.4 nM |
| CO[C@@]1(C)C=C[C@H](C)N2C[C@H]1n1cc(C(=O)NCc3c(F)cc(F)cc3F)c(=O)c(O)c1C2=O (single isomer, unassigned) [Example 24] | 11.5 mL/min/kg | – | 11100 nM | – | 2.2 nM |
| C[C@H]1CC[C@@](C)(O)[C@H]2CN1C(=O)c1c(O)c(=O)c(C(=O)NCc3c(F)cc(F)cc3F)cn12 (single isomer, unassigned) [Example 32] | 9 mL/min/kg | – | 34600 nM | 0.43 nM | 1.9 nM |
| C[C@@H]1CC[C@](C)(O)[C@H]2CN1C(=O)c1c(O)c(=O)c(C(=O)NCc3ccc(F)cc3F)cn12 (single isomer, unassigned) [Example 35] | 10.3 mL/min/kg | – | 11700 nM | 1.45 nM | 3.2 nM |
| CO[C@@H]1CC(F)(F)[C@H](C)N2C[C@H]1n1cc(C(=O)NCc3c(F)cc(F)cc3F)c(=O)c(O)c1C2=O (single isomer, unassigned) [Example 36] | 3.3 mL/min/kg | – | 27300 nM | 0.33 nM | 2.6 nM |
| CO[C@@H]1C[C@@H](F)[C@H](C)N2C[C@H]1n1cc(C(=O)NCc3c(F)cc(F)cc3F)c(=O)c(O)c1C2=O (single isomer, unassigned) [Example 38] | 3.17 mL/min/kg | – | 25500 nM | 0.34 nM | 1.8 nM |
| C[C@H]1C=C[C@H](O)[C@H]2CN1C(=O)c1c(O)c(=O)c(C(=O)NCc3c(F)cc(F)cc3F)cn12 [Example 14, (3S,6S,7R)-6,12-dihydroxy-3-methyl-1,11-dioxo-N-(2,4,6-trifluorobenzyl)-1,6,7,11-tetrahydro-3H-2,7-methanopyrido[1,2-a][1,4]diazonine-10-carboxamide] | 2.67 mL/min/kg | – | 50000 nM | – | 4.2 nM |
| C[C@H]1C=C[C@H](O)[C@H]2CN1C(=O)c1c(O)c(=O)c(C(=O)NCc3ccc(F)cc3F)cn12 [Example 20, (3S,6S,7R)—N-(2,4-difluorobenzyl)-6,12-dihydroxy-3-methyl-1,11-dioxo-1,6,7,11-tetrahydro-3H-2,7-methanopyrido[1,2-a][1,4]diazonine-10-carboxamide] | 1.83 mL/min/kg | – | 30000 nM | – | 2.8 nM |
| C[C@H]1C=C[C@H](OC(F)F)[C@H]2CN1C(=O)c1c(O)c(=O)c(C(=O)NCc3c(F)cc(F)cc3F)cn12 [Example 22, (3S,6S,7R)-6-(difluoromethoxy)-12-hydroxy-3-methyl-1,11-dioxo-N-(2,4,6-trifluorobenzyl)-1,6,7,11-tetrahydro-3H-2,7-methanopyrido[1,2-a][1,4]diazonine-10-carboxamide] | 14 mL/min/kg | – | 8910 nM | – | 1.7 nM |
| [2H]C([2H])([2H])[C@]1(O)C=C[C@H](C)N2C[C@H]1n1cc(C(=O)NCc3ccc(F)cc3F)c(=O)c(O)c1C2=O [Example 30, (1R,10S,13S)—N-[(2,4-difluorophenyl)methyl]-6,13-dihydroxy-10-methyl-5,8-dioxo-13-(trideuteriomethyl)-2,9-diazatricyclo[7.4.1.02,7]tetradeca-3,6,11-triene-4-carboxamide] | 1.83 mL/min/kg | – | 7480 nM | – | 2.1 nM |
